Test results reported in the NIST ThermoML archive (doi:10.1016/j.fluid.2015.03.016).
Several values for one entry are separate records, joined by “and”; a condition that tells them apart may be missing. Equal entries are not always repeated.

Conditions: Liquid

CCCOC(=O)CCCCC(=O)OCCC [dipropyl hexanedioate]
Conditions	viscosity
303.14 K, 1110 kPa, Vibrating wire viscometry	3.606 mPa·s and 3.607 mPa·s
303.14 K, 1140 kPa, Vibrating wire viscometry	3.609 mPa·s
303.14 K, 5210 kPa, Vibrating wire viscometry	3.78 mPa·s
303.14 K, 5220 kPa, Vibrating wire viscometry	3.781 mPa·s and 3.776 mPa·s
303.14 K, 18280 kPa, Vibrating wire viscometry	4.327 mPa·s
303.14 K, 18290 kPa, Vibrating wire viscometry	4.33 mPa·s and 4.331 mPa·s
303.15 K, 2810 kPa, Vibrating wire viscometry	3.653 mPa·s and 3.654 mPa·s
303.15 K, 2820 kPa, Vibrating wire viscometry	3.657 mPa·s
303.15 K, 10310 kPa, Vibrating wire viscometry	3.975 mPa·s
303.15 K, 10320 kPa, Vibrating wire viscometry	3.972 mPa·s
303.15 K, 15230 kPa, Vibrating wire viscometry	4.218 mPa·s
303.15 K, 15260 kPa, Vibrating wire viscometry	4.213 mPa·s
303.15 K, 15310 kPa, Vibrating wire viscometry	4.218 mPa·s
313.15 K, 2710 kPa, Vibrating wire viscometry	2.934 mPa·s and 2.931 mPa·s
313.15 K, 15330 kPa, Vibrating wire viscometry	3.354 mPa·s and 3.356 mPa·s and 3.358 mPa·s
313.15 K, 18290 kPa, Vibrating wire viscometry	3.441 mPa·s and 3.443 mPa·s
313.16 K, 1200 kPa, Vibrating wire viscometry	2.882 mPa·s
313.16 K, 1210 kPa, Vibrating wire viscometry	2.879 mPa·s
313.16 K, 1220 kPa, Vibrating wire viscometry	2.882 mPa·s
313.16 K, 2700 kPa, Vibrating wire viscometry	2.933 mPa·s
313.16 K, 5180 kPa, Vibrating wire viscometry	3.01 mPa·s
313.16 K, 5190 kPa, Vibrating wire viscometry	3.016 mPa·s
313.16 K, 10460 kPa, Vibrating wire viscometry	3.178 mPa·s
313.16 K, 10480 kPa, Vibrating wire viscometry	3.176 mPa·s
313.16 K, 10490 kPa, Vibrating wire viscometry	3.177 mPa·s
313.16 K, 18290 kPa, Vibrating wire viscometry	3.445 mPa·s
313.18 K, 101.33 kPa, Capillary tube (Ostwald / Ubbelohde) method	2.888 mPa·s
323.1 K, 101.33 kPa, Capillary tube (Ostwald / Ubbelohde) method	2.352 mPa·s
323.15 K, 1160 kPa, Vibrating wire viscometry	2.359 mPa·s
323.15 K, 1170 kPa, Vibrating wire viscometry	2.356 mPa·s
323.15 K, 1180 kPa, Vibrating wire viscometry	2.36 mPa·s
323.15 K, 15180 kPa, Vibrating wire viscometry	2.729 mPa·s
323.16 K, 2710 kPa, Vibrating wire viscometry	2.409 mPa·s and 2.408 mPa·s
323.16 K, 2720 kPa, Vibrating wire viscometry	2.412 mPa·s
323.16 K, 5260 kPa, Vibrating wire viscometry	2.464 mPa·s
323.16 K, 5270 kPa, Vibrating wire viscometry	2.462 mPa·s
323.16 K, 15200 kPa, Vibrating wire viscometry	2.731 mPa·s
323.17 K, 10210 kPa, Vibrating wire viscometry	2.598 mPa·s
323.17 K, 10220 kPa, Vibrating wire viscometry	2.597 mPa·s
323.17 K, 18240 kPa, Vibrating wire viscometry	2.814 mPa·s
323.17 K, 18260 kPa, Vibrating wire viscometry	2.816 mPa·s
323.17 K, 18270 kPa, Vibrating wire viscometry	2.812 mPa·s
333.14 K, 2610 kPa, Vibrating wire viscometry	2.006 mPa·s
333.14 K, 2620 kPa, Vibrating wire viscometry	2.009 mPa·s
333.15 K, 2620 kPa, Vibrating wire viscometry	2.009 mPa·s
333.15 K, 5110 kPa, Vibrating wire viscometry	2.05 mPa·s and 2.052 mPa·s
333.15 K, 5130 kPa, Vibrating wire viscometry	2.052 mPa·s
333.15 K, 15200 kPa, Vibrating wire viscometry	2.274 mPa·s
333.15 K, 15220 kPa, Vibrating wire viscometry	2.273 mPa·s
333.15 K, 18260 kPa, Vibrating wire viscometry	2.339 mPa·s
333.15 K, 18290 kPa, Vibrating wire viscometry	2.338 mPa·s
333.15 K, 18300 kPa, Vibrating wire viscometry	2.343 mPa·s
333.16 K, 1090 kPa, Vibrating wire viscometry	1.975 mPa·s
333.16 K, 1100 kPa, Vibrating wire viscometry	1.979 mPa·s
333.16 K, 1120 kPa, Vibrating wire viscometry	1.979 mPa·s
333.16 K, 10160 kPa, Vibrating wire viscometry	2.167 mPa·s
333.16 K, 10180 kPa, Vibrating wire viscometry	2.163 mPa·s
333.16 K, 10190 kPa, Vibrating wire viscometry	2.165 mPa·s
333.16 K, 15220 kPa, Vibrating wire viscometry	2.273 mPa·s
333.22 K, 101.33 kPa, Capillary tube (Ostwald / Ubbelohde) method	1.97 mPa·s
